The subject of data set [1] is type III secretion in S. typhimurium. In words: microbe, parasite or virus in culture. In kind it is cell-based, Salmonella enterica serovar Typhimurium. As to conditions: for inhibition at 330 µM: Salmonella enterica, TYPHIMURIUM, read-out: % inhibition of SipA secretion; for % Secretion: type III secretion in S. typhimurium, SipA secretion by Western blot. (In general: A western blot detects proteins with antibodies after separation by electrophoresis.)

In data set [2] the test system is S. typhimurium T3S secreted substrates. In kind it is cell-based. The conditions noted are these: Western blot.
Data set [3] relates to Ysc T3S system. In words: Secretion profile of Y. enterocolitica Ysc T3S system. In kind it is cell-based, Yersinia enterocolitica. As to conditions: 380 μM.
Data set [4] has as its system Ysa T3S system. Nature of the data set: Secretion profile of Y. enterocolitica Ysa T3S system. The conditions noted are these: 380 μM. Type of data set: cell-based, Yersinia enterocolitica.
Data set [5] has as its target T3S needle complex (NC) (Salmonella typhimurium, UniProt P35672). Type of data set: cell-based, S. typhimurium.
In data set [6] the test system is InvG, PrgH and PrgK. In words: Abundance and membrane localization of NC proteins (Western blot of membrane fractions). In kind it is cell-based, S. typhimurium. As to conditions: 380 μM. On the procedure: FIG. 3A is an image of a Western blot of type III secretion NC proteins isolated from S. typhimurium grown in the presence (+) or absence (−) of 380 μM of Compound 1. FIG. 3B is an image of a Western blot of membrane fractions of S. typhimurium grown in the presence (+) or absence (−) of 380 μM of Compound 1. In the presence of Compound 1, InvG cellular levels and bacterial membrane localization were unaltered (FIGS. 3A and 3B). Similarly, protein levels and localization of the other NC proteins PrgH and PrgK were unchanged.

In data set [7] the test system is flagellar T3S system. Nature of the data set: Flagellar function: motility assay and flagellin secretion. The conditions noted are these: 380 μM. In kind it is cell-based, S. typhimurium.
The subject of data set [8] is P. aeruginosa twitching motility (T4P). Nature of the data set: Twitching assay. In kind it is cell-based, Pseudomonas aeruginosa. The conditions noted are these: 380 μM in motility plates.
Data set [9] has as its system Francisella virulence protein secretion. Type of data set: cell-based, Francisella novicida. As to conditions: 380 μM.
The subject of data set [10] is Pseudomonas syringae pv tomato DC3000. Nature of the data set: Hypersensitivity response (HR) in non-host tobacco plants. The conditions noted are these: 380 μM, overlapping infiltration, compared with solvent alone; 24 hours. Type of data set: in vivo. From the text: Inhibition of T3S-dependent pathogenesis of the plant pathogen, Pseudomonas syringae pv tomato DC3000 for tobacco. The bacterial plant pathogen Pseudomonas syringae pv tomato DC3000 requires T3S of virulence determinants to cause disease. The hypersensitivity response (HR) elicited by P. syringae in non-host tobacco plants depends upon a functional T3S system, representing an established virulence model for this pathogen. To determine the effect of Compound 1 on P. syringae pathogenesis for plants, overlapping infiltrations of P. syringae and Compound 1 were performed. P. syringae was inoculated on non-host tobacco plants and monitored for HR. Bacterial inoculations partially overlapped inoculations of either 380 μM of Compound 1 or the solvent DMSO. HR was measured by tissue collapse of plants cells in the overlapping region.
Therefore, these compounds, which blocked disease in an important model of plant pathogenesis, may have utility in preventing disease of plants.

In data set [11] the test system is bone marrow macrophages. Nature of the data set: Cytotoxicity of compound added directly to macrophages (LDH release). (In general: LDH in the medium is a marker of cell lysis.)
In data set [12] the test system is T2-dependent secretion of elastase. In words: Elastolytic activity assay of culture supernatants (elastin Congo red). The conditions noted are these: 380 μM; 18 hour culture (PAO1-C); untreated PAO1 1.881, pilD 0.098.
Data set [13] relates to invF, prgH, and sipA genes. In words: Transcriptional reporter fusions of T3S genes to lacZ, β-Galactosidase activity. The conditions noted are these: cultures grown in presence vs absence of compound.
The test system of data set [14] is bone marrow macrophages infected with S. typhimurium. In words: S. typhimurium T3-dependent cytotoxicity of bone marrow macrophages (LDH release). The conditions noted are these: bacteria grown in presence of compound; multiplicity of 40; 40% without compound.

For orientation: inhibition means how much of the control response was suppressed.

Sequence of T3S needle complex (NC) (P35672 25-562, one chain of several): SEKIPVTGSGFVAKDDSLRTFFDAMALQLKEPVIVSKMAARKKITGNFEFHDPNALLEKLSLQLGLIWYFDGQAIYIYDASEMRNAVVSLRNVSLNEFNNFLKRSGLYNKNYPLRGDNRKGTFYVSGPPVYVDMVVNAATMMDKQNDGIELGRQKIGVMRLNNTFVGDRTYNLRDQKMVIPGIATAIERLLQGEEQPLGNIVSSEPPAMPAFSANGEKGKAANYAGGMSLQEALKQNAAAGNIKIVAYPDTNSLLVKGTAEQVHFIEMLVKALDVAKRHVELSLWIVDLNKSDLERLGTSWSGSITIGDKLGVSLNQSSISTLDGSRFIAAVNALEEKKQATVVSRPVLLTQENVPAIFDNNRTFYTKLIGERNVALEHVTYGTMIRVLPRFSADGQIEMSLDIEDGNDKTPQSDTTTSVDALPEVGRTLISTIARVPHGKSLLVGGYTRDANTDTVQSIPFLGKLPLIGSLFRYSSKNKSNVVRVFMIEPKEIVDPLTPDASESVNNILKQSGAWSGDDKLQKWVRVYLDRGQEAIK

For `COc1cc(/C=C2\S/C(=N\c3ccccc3)N([C@H](C)C(=O)N[C@@H](Cc3c[nH]c4ccccc34)C(N)=O)C2=O)cc(OC)c1O` [compound 52, (R)-N-((S)-1-amino-3-(1H-indol-3-yl)-1-oxopropan-2-yl)-2-((2Z,5Z)-5-(4-hydroxy-3,5-dimethoxybenzylidene)-4-oxo-2-(phenylimino)thiazolidin-3-yl)propanamide], the inhibition at 330 µM in data set [1] was determined as 100%.

In the case of `COc1cc(/C=C2\S/C(=N\c3ccccc3)N(C(C)C(=O)N[C@@H](Cc3c[nH]c4ccccc34)C(N)=O)C2=O)cc(OC)c1O` (stereo partly drawn) [compound 51, N-((S)-1-amino-3-(1H-indol-3-yl)-1-oxopropan-2-yl)-2-((2Z,5Z)-5-(4-hydroxy-3,5-dimethoxybenzylidene)-4-oxo-2-(phenylimino)thiazolidin-3-yl)propanamide], in data set [1], the inhibition at 330 µM was 100%.

As for `COc1cc(/C=C2\S/C(=N\c3ccccc3)N(c3ccccc3)C2=O)cc(OC)c1O` [Compound 1], in data set [1] (380 uM), the “inhibition of known T3S substrates” value is “complete inhibition”. Also, the “% Secretion” value in data set [1] is given as 0 ± 0%. Further, in [2], the “secretion of SipA and SspH1 expressed from the T3S-independent lac promoter” value is on record as “Neither of these proteins was secreted”. Moreover, the “amount of T3 secreted proteins SipA, B, and C” value in [2] (cultures grown in presence of compound) is given as “marked decrease”. In data set [3], the “Yop proteins in culture supernatants” value is “absent”. Further, the “Ysp proteins in culture supernatants” value in data set [4] is “absent”. The “NC proteins in isolated needle complexes” value in [5] (380 μM, Western blot) is on record as “overall reduction”. Further, the “NC number on the cell surface” value in [5] (electron micrographs of osmotically shocked cells) was “marked reduction”. Moreover, in [6], the “InvG cellular levels and bacterial membrane localization” value was “unaltered”; the “protein levels and localization of PrgH and PrgK” value is “unchanged”. For the same compound, in [7], the S. typhimurium motility entry is “unaffected” and the secretion of flagellin result is given as “unaltered”. Moreover, the “P. aeruginosa twitching motility” value in data set [8] is “significantly reduced”. Besides, in data set [9], the “secretion of the known Francisella virulence proteins” value is “inhibited secretion”. Further, the “ability of P. syringae to elicit HR” value in [10] is “reduced ability to elicit HR”. In addition, the “lysis of macrophages exposed to compound alone” value in [11] is given as “did not lyse”. For the same compound, the “OD495, elastolytic activity of culture supernatant” value in data set [12] is on record as 0.437. Further, the “β-Galactosidase activity of invF, prgH, sipA lacZ fusions” value in data set [13] is reported as “similar”. Moreover, the “caspase-1 dependent cell death of macrophages” value in data set [14] was 0.5%.

Regarding `COc1cc(/C=C2\SC(=N)N(c3ccccc3)C2=O)cc(OC)c1O` [Compound 5], the “% Secretion” value in [1] is recorded as 81.2 ± 0%.

The record behind these values is patent publication US8252940B2, “5-substituted-2-imino-thiazolidinone compounds and their use as inhibitors of bacterial infection” (University of Washington, priority 2008, dated 2012).
